Test results taken from publication PMC12064818, “A general assay platform to study protein pharmacology using ligand-dependent structural dynamics” (Nature Communications, 2025).

Molecular target: firefly luciferase (FLuc) (Photinus pyralis, UniProt P08659)
Assay: Thermal shift profiles (Thermofluor assay), FLuc;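 as to Thermofluor FLuc, No ATP: normalized first derivative of fluorescence (dF/dT) at the stated temperature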
Assay type: binding
Parameters: unit of the concentration uncertain
Conditions: compound 100 (unit uncertain); for Thermofluor FLuc, ATP: ATP (2 (unit uncertain))

Sequence of firefly luciferase (FLuc) (P08659 whole entry): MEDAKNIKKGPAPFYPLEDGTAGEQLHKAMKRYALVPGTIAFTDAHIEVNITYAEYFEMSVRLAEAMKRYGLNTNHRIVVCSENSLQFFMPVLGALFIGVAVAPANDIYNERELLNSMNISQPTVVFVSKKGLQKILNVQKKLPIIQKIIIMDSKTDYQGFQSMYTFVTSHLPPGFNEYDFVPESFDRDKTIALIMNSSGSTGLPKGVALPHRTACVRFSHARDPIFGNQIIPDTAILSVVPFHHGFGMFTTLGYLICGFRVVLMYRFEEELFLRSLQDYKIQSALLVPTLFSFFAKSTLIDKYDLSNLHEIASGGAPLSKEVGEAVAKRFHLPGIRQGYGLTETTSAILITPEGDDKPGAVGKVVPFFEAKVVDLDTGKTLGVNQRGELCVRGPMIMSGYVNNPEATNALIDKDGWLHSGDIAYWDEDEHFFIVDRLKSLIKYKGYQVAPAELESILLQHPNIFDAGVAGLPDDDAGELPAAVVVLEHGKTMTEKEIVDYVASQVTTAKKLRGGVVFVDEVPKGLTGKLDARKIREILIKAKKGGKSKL

## CC(CNC(=O)C1CCN(C(=O)c2ncn3c2COC(c2ccccc2)C3)CC1)c1ccccc1 (centres unmarked) [NCGC 00449795]
20.000 °C
  Thermofluor FLuc, No ATP: 0.224
  Thermofluor FLuc, ATP: 0.781
20.993 °C
  Thermofluor FLuc, No ATP: 0.114
  Thermofluor FLuc, ATP: 0.794
21.987 °C
  Thermofluor FLuc, No ATP: 0.126
  Thermofluor FLuc, ATP: 0.808
22.980 °C
  Thermofluor FLuc, No ATP: 0.133
  Thermofluor FLuc, ATP: 0.818
23.974 °C
  Thermofluor FLuc, No ATP: 0.087
  Thermofluor FLuc, ATP: 0.824
24.967 °C
  Thermofluor FLuc, No ATP: 0.106
  Thermofluor FLuc, ATP: 0.824
25.960 °C
  Thermofluor FLuc, No ATP: 0.064
  Thermofluor FLuc, ATP: 0.818
26.954 °C
  Thermofluor FLuc, No ATP: 0.085
  Thermofluor FLuc, ATP: 0.807
27.947 °C
  Thermofluor FLuc, No ATP: 0.040
  Thermofluor FLuc, ATP: 0.794
28.940 °C
  Thermofluor FLuc, No ATP: 0.026
  Thermofluor FLuc, ATP: 0.78
29.934 °C
  Thermofluor FLuc, No ATP: 0.058
  Thermofluor FLuc, ATP: 0.768
30.927 °C
  Thermofluor FLuc, No ATP: 0.042
  Thermofluor FLuc, ATP: 0.757
31.921 °C
  Thermofluor FLuc, No ATP: 0.056
  Thermofluor FLuc, ATP: 0.744
32.914 °C
  Thermofluor FLuc, No ATP: 0.053
  Thermofluor FLuc, ATP: 0.724
33.907 °C
  Thermofluor FLuc, No ATP: 0.025
  Thermofluor FLuc, ATP: 0.688
34.901 °C
  Thermofluor FLuc, No ATP: 0.000
  Thermofluor FLuc, ATP: 0.633
35.894 °C
  Thermofluor FLuc, No ATP: 0.005
  Thermofluor FLuc, ATP: 0.557
36.887 °C
  Thermofluor FLuc, No ATP: 0.023
  Thermofluor FLuc, ATP: 0.463
37.881 °C
  Thermofluor FLuc, No ATP: 0.061
  Thermofluor FLuc, ATP: 0.358
38.874 °C
  Thermofluor FLuc, No ATP: 0.092
  Thermofluor FLuc, ATP: 0.252
39.868 °C
  Thermofluor FLuc, No ATP: 0.154
  Thermofluor FLuc, ATP: 0.156
40.861 °C
  Thermofluor FLuc, No ATP: 0.218
  Thermofluor FLuc, ATP: 0.078
41.854 °C
  Thermofluor FLuc, No ATP: 0.347
  Thermofluor FLuc, ATP: 0.026
42.848 °C
  Thermofluor FLuc, No ATP: 0.433
  Thermofluor FLuc, ATP: 0
43.841 °C
  Thermofluor FLuc, No ATP: 0.514
  Thermofluor FLuc, ATP: 0
44.835 °C
  Thermofluor FLuc, No ATP: 0.555
  Thermofluor FLuc, ATP: 0.021
45.828 °C
  Thermofluor FLuc, No ATP: 0.658
  Thermofluor FLuc, ATP: 0.057
46.821 °C
  Thermofluor FLuc, No ATP: 0.723
  Thermofluor FLuc, ATP: 0.105
47.815 °C
  Thermofluor FLuc, No ATP: 0.793
  Thermofluor FLuc, ATP: 0.162
48.808 °C
  Thermofluor FLuc, No ATP: 0.830
  Thermofluor FLuc, ATP: 0.225
50.795 °C
  Thermofluor FLuc, No ATP: 0.929
  Thermofluor FLuc, ATP: 0.362
51.788 °C
  Thermofluor FLuc, No ATP: 0.936
  Thermofluor FLuc, ATP: 0.434
52.782 °C
  Thermofluor FLuc, ATP: 0.507
53.775 °C
  Thermofluor FLuc, No ATP: 1.000
  Thermofluor FLuc, ATP: 0.578
54.768 °C
  Thermofluor FLuc, No ATP: 0.997
  Thermofluor FLuc, ATP: 0.643
55.762 °C
  Thermofluor FLuc, No ATP: 0.999
  Thermofluor FLuc, ATP: 0.699
56.755 °C
  Thermofluor FLuc, No ATP: 0.989
  Thermofluor FLuc, ATP: 0.743
57.748 °C
  Thermofluor FLuc, No ATP: 0.966
  Thermofluor FLuc, ATP: 0.774
58.742 °C
  Thermofluor FLuc, No ATP: 0.936
  Thermofluor FLuc, ATP: 0.793
59.735 °C
  Thermofluor FLuc, No ATP: 0.945
  Thermofluor FLuc, ATP: 0.802
60.729 °C
  Thermofluor FLuc, No ATP: 0.960
  Thermofluor FLuc, ATP: 0.805
61.722 °C
  Thermofluor FLuc, No ATP: 0.919
  Thermofluor FLuc, ATP: 0.804
62.715 °C
  Thermofluor FLuc, No ATP: 0.915
  Thermofluor FLuc, ATP: 0.801
63.709 °C
  Thermofluor FLuc, No ATP: 0.911
  Thermofluor FLuc, ATP: 0.797
65.695 °C
  Thermofluor FLuc, No ATP: 0.892
  Thermofluor FLuc, ATP: 0.793
66.689 °C
  Thermofluor FLuc, No ATP: 0.889
  Thermofluor FLuc, ATP: 0.799
68.676 °C
  Thermofluor FLuc, No ATP: 0.909
  Thermofluor FLuc, ATP: 0.827
69.669 °C
  Thermofluor FLuc, No ATP: 0.830
  Thermofluor FLuc, ATP: 0.847
70.662 °C
  Thermofluor FLuc, No ATP: 0.839
  Thermofluor FLuc, ATP: 0.865
71.656 °C
  Thermofluor FLuc, No ATP: 0.811
  Thermofluor FLuc, ATP: 0.881
72.649 °C
  Thermofluor FLuc, No ATP: 0.810
  Thermofluor FLuc, ATP: 0.893
73.643 °C
  Thermofluor FLuc, No ATP: 0.758
  Thermofluor FLuc, ATP: 0.901
74.636 °C
  Thermofluor FLuc, No ATP: 0.788
  Thermofluor FLuc, ATP: 0.906
75.629 °C
  Thermofluor FLuc, No ATP: 0.714
  Thermofluor FLuc, ATP: 0.91
